In PubChem BioAssay AID330 (DTP/NCI, 2004):
“And” between values parts separate entries of the source, which are not always exact repeats. Identical values can stand only once. Inconclusive results and toxic doses are left out.

Tested on: P388 leukemia ip, CD2F1 mice, survival T/C
Experiment: NCI In Vivo Anticancer Drug Screen. Data for tumor model P388 Leukemia (intraperitoneal) in CD2F1 (CDF1) mice
Settings: endpoint: median survival time, higher = longer survival
How it was run: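 Mice carrying the transplanted tumor received test compound or vehicle. Survival was recorded in each group, and the value is the treated-group measurement divided by that of the vehicle-treated control group.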

[1] = dose: 100.0 mg/kg/injection, schedule: Q01DX001 (ip), vehicle: Klucel (hydroxypropylcellulose) (HPC)
[2] = dose: 200.0 mg/kg/injection, schedule: Q01DX001 (ip), vehicle: Klucel (hydroxypropylcellulose) (HPC)
[3] = dose: 50.0 mg/kg/injection, schedule: Q01DX009 (ip), vehicle: saline with Tween-80
[4] = dose: 100.0 mg/kg/injection, schedule: Q01DX009 (ip), vehicle: saline with Tween-80
[5] = dose: 200.0 mg/kg/injection, schedule: Q01DX009 (ip), vehicle: saline with Tween-80
[6] = dose: 50.0 mg/kg/injection, schedule: Q01DX001 (ip), vehicle: Klucel (hydroxypropylcellulose) (HPC)
[7] = dose: 100.0 mg/kg/injection, schedule: Q04DX003 (ip), vehicle: saline
[8] = dose: 200.0 mg/kg/injection, schedule: Q04DX003 (ip), vehicle: saline
[9] = dose: 400.0 mg/kg/injection, schedule: Q04DX003 (ip), vehicle: saline
[10] = dose: 50.0 mg/kg/injection, schedule: Q01DX009 (ip), vehicle: Klucel (hydroxypropylcellulose) (HPC)
[11] = dose: 100.0 mg/kg/injection, schedule: Q01DX009 (ip), vehicle: Klucel (hydroxypropylcellulose) (HPC)
[12] = dose: 60.0 mg/kg/injection, schedule: Q01DX005 (ip), vehicle: saline with Tween-80
[13] = dose: 120.0 mg/kg/injection, schedule: Q01DX005 (ip), vehicle: saline with Tween-80
[14] = dose: 240.0 mg/kg/injection, schedule: Q01DX005 (ip), vehicle: saline with Tween-80
[15] = dose: 50.0 mg/kg/injection, schedule: Q01DX005 (ip), vehicle: saline with Tween-80
[16] = dose: 200.0 mg/kg/injection, schedule: Q01DX005 (ip), vehicle: saline with Tween-80
[17] = dose: 12.5 mg/kg/injection, schedule: Q01DX005 (ip), vehicle: saline with Tween-80
[18] = dose: 25.0 mg/kg/injection, schedule: Q01DX005 (ip), vehicle: saline with Tween-80

With `CC(OS(C)(=O)=O)C(Br)C(Br)C(C)OS(C)(=O)=O` (stereo not given) the T/C [1] was 168 % of control and the T/C [2] was 176 % of control.
With `CCOC(=O)N1CC2C3CN(C(=O)OCC)C4CC3(C(=O)O)C1CC24C(=O)O` the T/C [3] was 109 % of control, the T/C [4] was 100 % of control and the T/C [5] was 102 % of control.
For `O=C(CCl)N1c2ccccc2Sc2ccc(Cl)cc21`, the T/C (dose: 3.13 mg/kg/injection, schedule: Q01DX009 (ip), vehicle: water) was 117 % of control, the T/C (dose: 6.25 mg/kg/injection, schedule: Q01DX009 (ip), vehicle: water) was 117 % of control and the T/C (dose: 12.5 mg/kg/injection, schedule: Q01DX009 (ip), vehicle: water) was 111 % of control.
With `NC(=O)C(=O)NNc1cccc(Cl)n1` the T/C [6] was 96 % of control, the T/C [1] was 98 % of control and the T/C [2] was 103 % of control.
In the case of `COC(=O)N/N=C\c1ccc(O)c(OC)c1`, the T/C (dose: 50.0 mg/kg/injection, schedule: Q04DX003 (ip), vehicle: saline) is reported as 97 % of control, the T/C [7] is reported as 101 % of control and the T/C [8] is reported as 97 % of control. The T/C [9] was 101 % of control.
`CC(S)c1nc2ccccc2[nH]1` (stereo not given) was tested, and the T/C (dose: 100.0 mg/kg/injection, schedule: Q01DX001 (ip), vehicle: Klucel + Tween-80) was 100 % of control, the T/C (dose: 200.0 mg/kg/injection, schedule: Q01DX001 (ip), vehicle: Klucel + Tween-80) was 97 % of control and the T/C (dose: 400.0 mg/kg/injection, schedule: Q01DX001 (ip), vehicle: Klucel + Tween-80) was 111 % of control.
For `COC(=O)NC1=Nc2ccccc2N(C(=O)Oc2ccccc2)S1`, the T/C (dose: 50.0 mg/kg/injection, schedule: Q01DX005 (ip), vehicle: acetone) was 100 % of control, the T/C (dose: 100.0 mg/kg/injection, schedule: Q01DX005 (ip), vehicle: acetone) was 100 % of control and the T/C (dose: 200.0 mg/kg/injection, schedule: Q01DX005 (ip), vehicle: acetone) was 107 % of control.
With `O=C(O)c1c(Cl)c(Cl)c(Cl)c(Cl)c1Cl` the T/C [4] was 95 % of control, the T/C [5] was 100 % of control and the T/C (dose: 400.0 mg/kg/injection, schedule: Q01DX009 (ip), vehicle: saline with Tween-80) was 113 % of control.
`O=C(NNC(=O)c1cccc(C(=O)NNC(=O)c2ccc(Cl)c(Cl)c2)n1)c1ccc(Cl)c(Cl)c1` was tested, and the T/C (dose: 12.5 mg/kg/injection, schedule: Q01DX009 (ip), vehicle: Klucel (hydroxypropylcellulose) (HPC)) was 106 % of control and 98 % of control, the T/C (dose: 25.0 mg/kg/injection, schedule: Q01DX009 (ip), vehicle: Klucel (hydroxypropylcellulose) (HPC)) was 108 % of control and 95 % of control and the T/C [10] was 105 % of control and 122 % of control. The T/C [11] was 119 % of control.
For `Cn1cc(CCC(=O)C2C=CC=CC2=NC(=O)CCCl)c2ccccc21` (stereo not given), the T/C [12] was 107 % of control, the T/C [13] was 101 % of control and the T/C [14] was 94 % of control.
In the case of `O=C(O)c1cnc2cc3c(cc2c1Nc1ccc2c(c1)OCO2)OCO3`, the T/C (dose: 60.0 mg/kg/injection, schedule: Q01DX005 (ip), vehicle: Klucel (hydroxypropylcellulose) (HPC)) is reported as 93 % of control, the T/C (dose: 120.0 mg/kg/injection, schedule: Q01DX005 (ip), vehicle: Klucel (hydroxypropylcellulose) (HPC)) is reported as 92 % of control and the T/C (dose: 240.0 mg/kg/injection, schedule: Q01DX005 (ip), vehicle: Klucel (hydroxypropylcellulose) (HPC)) is reported as 96 % of control.
In the case of `O=S1(=O)CCN(Cc2cccnc2)CC1`, the T/C (dose: 50.0 mg/kg/injection, schedule: Q01DX009 (ip), vehicle: saline) is reported as 94 % of control, the T/C (dose: 100.0 mg/kg/injection, schedule: Q01DX009 (ip), vehicle: saline) is reported as 98 % of control and the T/C (dose: 200.0 mg/kg/injection, schedule: Q01DX009 (ip), vehicle: saline) is reported as 91 % of control.
In the case of `Cc1cc(=NO)cc(C)n1O`, the T/C (dose: 25.0 mg/kg/injection, schedule: Q01DX005 (ip), vehicle: distilled water + alcohol) is reported as 113 % of control, the T/C (dose: 50.0 mg/kg/injection, schedule: Q01DX005 (ip), vehicle: distilled water + alcohol) is reported as 113 % of control and 123 % of control and the T/C (dose: 50.0 mg/kg/injection, schedule: Q01DX005 (ip), vehicle: water) is reported as 115 % of control. For the same compound, the T/C (dose: 100.0 mg/kg/injection, schedule: Q01DX005 (ip), vehicle: distilled water + alcohol) was 121 % of control, the T/C (dose: 100.0 mg/kg/injection, schedule: Q01DX005 (ip), vehicle: water) was 106 % of control and the T/C (dose: 200.0 mg/kg/injection, schedule: Q01DX005 (ip), vehicle: water) was 118 % of control.
In the case of `NC(=S)c1ccc(/C=N/c2nc3ccccc3s2)cc1`, the T/C (dose: 25.0 mg/kg/injection, schedule: Q01DX001 (ip), vehicle: Klucel (hydroxypropylcellulose) (HPC)) is reported as 103 % of control, the T/C [6] is reported as 97 % of control and the T/C [1] is reported as 96 % of control and 97 % of control. The T/C [2] was 97 % of control and the T/C (dose: 400.0 mg/kg/injection, schedule: Q01DX001 (ip), vehicle: Klucel (hydroxypropylcellulose) (HPC)) was 97 % of control.
With `CC(=O)OCC1OC(n2c(Br)nc3c(N)ncnc32)C(OC(C)=O)C1OC(C)=O` (stereo not given) the T/C [15] was 103 % of control, the T/C (dose: 100.0 mg/kg/injection, schedule: Q01DX005 (ip), vehicle: saline with Tween-80) was 101 % of control and the T/C [16] was 97 % of control.
`CC(C)(C)C1=CS(=O)(=O)C(C(C)(C)C)C(O)O1` (stereo not given) was tested, and the T/C (dose: 25.0 mg/kg/injection, schedule: Q01DX009 (ip), vehicle: saline with Tween-80) was 100 % of control.
For `COc1ccccc1N1C(=O)CSC1=S`, the T/C [4] was 86 % of control, the T/C (dose: 100.0 mg/kg/injection, schedule: Q04DX003 (ip), vehicle: saline with Tween-80) was 90 % of control and the T/C [5] was 90 % of control. The T/C (dose: 200.0 mg/kg/injection, schedule: Q04DX003 (ip), vehicle: saline with Tween-80) was 90 % of control and the T/C (dose: 400.0 mg/kg/injection, schedule: Q04DX003 (ip), vehicle: saline with Tween-80) was 100 % of control.
With `Cc1cc(N=Cc2ccc(C=Nc3ccc(Br)c(C)c3)cc2)ccc1Br` the T/C [10] was 101 % of control, the T/C [11] was 93 % of control and the T/C (dose: 200.0 mg/kg/injection, schedule: Q01DX009 (ip), vehicle: Klucel (hydroxypropylcellulose) (HPC)) was 92 % of control.
For `C=CC(C)(C)C1Oc2cc(O)ccc2C(=O)C1c1ccc(OC)c(OC)c1O` (stereo not given), the T/C (dose: 100.0 mg/kg/injection, schedule: Q04DX003 (ip), vehicle: Klucel (hydroxypropylcellulose) (HPC)) was 92 % of control, the T/C (dose: 200.0 mg/kg/injection, schedule: Q04DX003 (ip), vehicle: Klucel (hydroxypropylcellulose) (HPC)) was 100 % of control and the T/C (dose: 400.0 mg/kg/injection, schedule: Q04DX003 (ip), vehicle: Klucel (hydroxypropylcellulose) (HPC)) was 92 % of control.
`CCOC(=O)Nc1nc2ccc(C(=O)OCC)cc2[nH]1` was tested, and the T/C [7] was 108 % of control, the T/C [8] was 101 % of control and the T/C [9] was 108 % of control.
For `CCOC(=O)C(=C(SC)SC)[n+]1ccc(C)cc1`, the T/C (dose: 12.5 mg/kg/injection, schedule: Q04DX002 (ip), vehicle: saline with Tween-80) was 104 % of control.
With `Cc1cn2c(n1)Nc1sc3c(c1C2)CCCC3` the T/C [12] was 101 % of control, the T/C [13] was 103 % of control and the T/C [14] was 100 % of control.
With `NC(N)=NCCCC(N)C(=O)CC(Cc1ccccc1)C(=O)O` (stereo not given) the T/C (dose: 8.8 mg/kg/injection, schedule: Q01DX005 (ip), vehicle: water) was 104 % of control, the T/C (dose: 17.0 mg/kg/injection, schedule: Q01DX005 (ip), vehicle: water) was 108 % of control and the T/C (dose: 34.0 mg/kg/injection, schedule: Q01DX005 (ip), vehicle: water) was 106 % of control. For the same compound, the T/C (dose: 68.0 mg/kg/injection, schedule: Q01DX005 (ip), vehicle: water) was 100 % of control.
In the case of `CN1c2ccccc2S(=O)(=O)n2c(COc3ccccc3)nnc21`, the T/C [17] is reported as 97 % of control, the T/C [18] is reported as 97 % of control and the T/C [15] is reported as 100 % of control and 91 % of control. For the same compound, the T/C [16] was 88 % of control.
With `N=C1N=Nc2nc(C(C(=O)c3cccc([N+](=O)[O-])c3Cl)c3nc4n(c3O)C(=N)N=N4)c(O)n21` (stereo not given) the T/C [12] was 106 % of control, the T/C [13] was 105 % of control and the T/C [14] was 106 % of control.
In the case of `CC(=O)OC1CC(OC(C)=O)C(OC(C)=O)C(CS[As](C)C)O1` (stereo not given), the T/C [3] is reported as 99 % of control, the T/C [4] is reported as 99 % of control and the T/C [5] is reported as 96 % of control.
`CC1CC(OC(=O)CSC#N)CC(C)(C)C1` (stereo not given) was tested, and the T/C [17] was 104 % of control, the T/C [18] was 101 % of control and the T/C [15] was 101 % of control and 108 % of control.
In the case of `CC(=O)/C(C=NC1CC(N=C/C(C(C)=O)=C(/C)O)CC(N=C/C(C(C)=O)=C(/C)O)C1)=C(/C)O` (stereo not given), the T/C [3] is reported as 101 % of control, the T/C [4] is reported as 101 % of control and the T/C [5] is reported as 93 % of control.
